Assay: Stability of cannabinoid and Vitamin E components of Beverage 1 (AB White) stored at 8° C. and 21-25° C., LCMSMS over 570 days
Format: physicochemical
Conditions: for Stability in AB White, 8° C. (content by LCMSMS): beverage stored at 8° C.; for Stability in AB White, 21-25° C. (content by LCMSMS): beverage stored at 21-25° C.
Description: The LCMSMS was calibrated for 0-1000 ng/ml cannabinoids with the same resin material used in the preparation of the concentrates. At each time period, 100 ml of beverage was diluted with 10 ml of methanol and injected into the LCMSMS for analysis.

## C=C(C)[C@@H]1CCC(C)=C[C@H]1c1c(O)cc(CCCCC)c(C(=O)O)c1O [CBDA, cannabidiolic acid]
Day 0
  Stability in AB White, 8° C. (content by LCMSMS): 1.75 µg/mL
  Stability in AB White, 21-25° C. (content by LCMSMS): 1.75 µg/mL
Day 1
  Stability in AB White, 8° C. (content by LCMSMS): 1.72 µg/mL
  Stability in AB White, 21-25° C. (content by LCMSMS): 1.76 µg/mL
Day 2
  Stability in AB White, 8° C. (content by LCMSMS): 1.76 µg/mL
  Stability in AB White, 21-25° C. (content by LCMSMS): 1.70 µg/mL
Day 3
  Stability in AB White, 8° C. (content by LCMSMS): 1.76 µg/mL
  Stability in AB White, 21-25° C. (content by LCMSMS): 1.71 µg/mL
Day 5
  Stability in AB White, 8° C. (content by LCMSMS): 1.71 µg/mL
  Stability in AB White, 21-25° C. (content by LCMSMS): 1.69 µg/mL
Day 8
  Stability in AB White, 8° C. (content by LCMSMS): 1.75 µg/mL
  Stability in AB White, 21-25° C. (content by LCMSMS): 1.77 µg/mL
Day 9
  Stability in AB White, 8° C. (content by LCMSMS): 1.73 µg/mL
  Stability in AB White, 21-25° C. (content by LCMSMS): 1.74 µg/mL
Day 10
  Stability in AB White, 8° C. (content by LCMSMS): 1.76 µg/mL
  Stability in AB White, 21-25° C. (content by LCMSMS): 1.73 µg/mL
Day 11
  Stability in AB White, 8° C. (content by LCMSMS): 1.70 µg/mL
  Stability in AB White, 21-25° C. (content by LCMSMS): 1.76 µg/mL
Day 12
  Stability in AB White, 8° C. (content by LCMSMS): 1.71 µg/mL
  Stability in AB White, 21-25° C. (content by LCMSMS): 1.74 µg/mL
Day 15
  Stability in AB White, 8° C. (content by LCMSMS): 1.74 µg/mL
  Stability in AB White, 21-25° C. (content by LCMSMS): 1.69 µg/mL
Day 16
  Stability in AB White, 8° C. (content by LCMSMS): 1.73 µg/mL
  Stability in AB White, 21-25° C. (content by LCMSMS): 1.75 µg/mL
Day 17
  Stability in AB White, 8° C. (content by LCMSMS): 1.73 µg/mL
  Stability in AB White, 21-25° C. (content by LCMSMS): 1.72 µg/mL
Day 18
  Stability in AB White, 8° C. (content by LCMSMS): 1.76 µg/mL
  Stability in AB White, 21-25° C. (content by LCMSMS): 1.75 µg/mL
Day 19
  Stability in AB White, 8° C. (content by LCMSMS): 1.74 µg/mL
  Stability in AB White, 21-25° C. (content by LCMSMS): 1.70 µg/mL
Day 22
  Stability in AB White, 8° C. (content by LCMSMS): 1.70 µg/mL
  Stability in AB White, 21-25° C. (content by LCMSMS): 1.70 µg/mL
Day 23
  Stability in AB White, 8° C. (content by LCMSMS): 1.76 µg/mL
  Stability in AB White, 21-25° C. (content by LCMSMS): 1.73 µg/mL
Day 24
  Stability in AB White, 8° C. (content by LCMSMS): 1.72 µg/mL
  Stability in AB White, 21-25° C. (content by LCMSMS): 1.70 µg/mL
Day 25
  Stability in AB White, 8° C. (content by LCMSMS): 1.75 µg/mL
  Stability in AB White, 21-25° C. (content by LCMSMS): 1.73 µg/mL
Day 26
  Stability in AB White, 8° C. (content by LCMSMS): 1.75 µg/mL
  Stability in AB White, 21-25° C. (content by LCMSMS): 1.75 µg/mL
Day 29
  Stability in AB White, 8° C. (content by LCMSMS): 1.75 µg/mL
  Stability in AB White, 21-25° C. (content by LCMSMS): 1.76 µg/mL
Day 30
  Stability in AB White, 8° C. (content by LCMSMS): 1.76 µg/mL
  Stability in AB White, 21-25° C. (content by LCMSMS): 1.71 µg/mL
Day 60
  Stability in AB White, 8° C. (content by LCMSMS): 1.70 µg/mL
  Stability in AB White, 21-25° C. (content by LCMSMS): 1.68 µg/mL
Day 90
  Stability in AB White, 8° C. (content by LCMSMS): 1.70 µg/mL
  Stability in AB White, 21-25° C. (content by LCMSMS): 1.67 µg/mL
Day 120
  Stability in AB White, 8° C. (content by LCMSMS): 1.67 µg/mL
  Stability in AB White, 21-25° C. (content by LCMSMS): 1.66 µg/mL
Day 150
  Stability in AB White, 8° C. (content by LCMSMS): 1.71 µg/mL
  Stability in AB White, 21-25° C. (content by LCMSMS): 1.64 µg/mL
Day 180
  Stability in AB White, 8° C. (content by LCMSMS): 1.75 µg/mL
  Stability in AB White, 21-25° C. (content by LCMSMS): 1.69 µg/mL
Day 210
  Stability in AB White, 8° C. (content by LCMSMS): 1.68 µg/mL
  Stability in AB White, 21-25° C. (content by LCMSMS): 1.73 µg/mL
Day 240
  Stability in AB White, 8° C. (content by LCMSMS): 1.70 µg/mL
  Stability in AB White, 21-25° C. (content by LCMSMS): 1.73 µg/mL
Day 270
  Stability in AB White, 8° C. (content by LCMSMS): 1.70 µg/mL
  Stability in AB White, 21-25° C. (content by LCMSMS): 1.71 µg/mL
Day 300
  Stability in AB White, 8° C. (content by LCMSMS): 1.69 µg/mL
  Stability in AB White, 21-25° C. (content by LCMSMS): 1.73 µg/mL
Day 330
  Stability in AB White, 8° C. (content by LCMSMS): 1.70 µg/mL
  Stability in AB White, 21-25° C. (content by LCMSMS): 1.72 µg/mL
Day 360
  Stability in AB White, 8° C. (content by LCMSMS): 1.70 µg/mL
  Stability in AB White, 21-25° C. (content by LCMSMS): 1.69 µg/mL
Day 390
  Stability in AB White, 8° C. (content by LCMSMS): 1.70 µg/mL
  Stability in AB White, 21-25° C. (content by LCMSMS): 1.67 µg/mL
Day 420
  Stability in AB White, 8° C. (content by LCMSMS): 1.67 µg/mL
  Stability in AB White, 21-25° C. (content by LCMSMS): 1.64 µg/mL
Day 450
  Stability in AB White, 8° C. (content by LCMSMS): 1.68 µg/mL
  Stability in AB White, 21-25° C. (content by LCMSMS): 1.70 µg/mL
Day 480
  Stability in AB White, 8° C. (content by LCMSMS): 1.66 µg/mL
  Stability in AB White, 21-25° C. (content by LCMSMS): 1.63 µg/mL
Day 510
  Stability in AB White, 8° C. (content by LCMSMS): 1.61 µg/mL
  Stability in AB White, 21-25° C. (content by LCMSMS): 1.66 µg/mL
Day 540
  Stability in AB White, 8° C. (content by LCMSMS): 1.61 µg/mL
  Stability in AB White, 21-25° C. (content by LCMSMS): 1.63 µg/mL
Day 570
  Stability in AB White, 8° C. (content by LCMSMS): 1.60 µg/mL
  Stability in AB White, 21-25° C. (content by LCMSMS): 1.61 µg/mL

From patent US20240415914A1, “Water Dispersible Cannabinoid Compositions” (priority 2021, published 2024)
